One data set has as its target T1, P-gp (Homo sapiens, UniProt P08183).
T1 construct: purchased ThermoFisher Scientific GM0015; host or cells: Sf9 membrane vesicles
Nature of the data set: Vesicular transport assay, 3H-NMQ uptake in P-gp membrane vesicles. The class given is biochemical. Here is the method: (§1) The vesicular transport assay was performed using Spodoptera frugiperda 9 (Sf9) membrane vesicles overexpressing human P-gp or BCRP, as reported previously with minor modifications. In brief, Isoplate 96-well flat-bottom white plates were preincubated with HBSS containing 0.5 mg/mL BSA on an orbital shaker in a 37 °C incubator at 90 rpm for 60 min followed by washing with HBSS. The assay mixture (75 µL/well) contained a probe substrate and either vehicle control, a known inhibitor of P-gp or BCRP, or an antioxidant, in vesicle uptake buffer (50 mM MOPS-Tris, pH 7.0 + 70 mM KCl + 7.5 mM MgCl2) prewarmed to 37 °C. After addition of the assay mixture, 5 μL/well (5 μg/μL stock concentration of the vesicles) of vesicles overexpressing human P-gp or BCRP was added. Uptake assays were initiated by adding 20 μL of either 25 mM adenosine triphosphate (ATP) or 25 mM adenosine monophosphate (AMP) to a final concentration of 5 mM. Plates were incubated at 37 °C for 20 min with orbital shaking (90 rpm). After 20 min, the uptake was quenched by adding 150 μL of ice-cold wash buffer (40 mM MOPS-Tris, pH 7.0 + 70 mM KCl) to each well, and the mixture was transferred to a 96-well filtration plate. Vacuum was applied, and the vesicles were washed three times with wash buffer. Vesicles were then lysed with 100 µL of MicroScint-20.

The conditions of data set [1]: Table S1; source not stated; cited from earlier work.
In a further data set the target is T2, OATP2B1 (Homo sapiens, UniProt O94956).
T2 sequence (O94956 1-709): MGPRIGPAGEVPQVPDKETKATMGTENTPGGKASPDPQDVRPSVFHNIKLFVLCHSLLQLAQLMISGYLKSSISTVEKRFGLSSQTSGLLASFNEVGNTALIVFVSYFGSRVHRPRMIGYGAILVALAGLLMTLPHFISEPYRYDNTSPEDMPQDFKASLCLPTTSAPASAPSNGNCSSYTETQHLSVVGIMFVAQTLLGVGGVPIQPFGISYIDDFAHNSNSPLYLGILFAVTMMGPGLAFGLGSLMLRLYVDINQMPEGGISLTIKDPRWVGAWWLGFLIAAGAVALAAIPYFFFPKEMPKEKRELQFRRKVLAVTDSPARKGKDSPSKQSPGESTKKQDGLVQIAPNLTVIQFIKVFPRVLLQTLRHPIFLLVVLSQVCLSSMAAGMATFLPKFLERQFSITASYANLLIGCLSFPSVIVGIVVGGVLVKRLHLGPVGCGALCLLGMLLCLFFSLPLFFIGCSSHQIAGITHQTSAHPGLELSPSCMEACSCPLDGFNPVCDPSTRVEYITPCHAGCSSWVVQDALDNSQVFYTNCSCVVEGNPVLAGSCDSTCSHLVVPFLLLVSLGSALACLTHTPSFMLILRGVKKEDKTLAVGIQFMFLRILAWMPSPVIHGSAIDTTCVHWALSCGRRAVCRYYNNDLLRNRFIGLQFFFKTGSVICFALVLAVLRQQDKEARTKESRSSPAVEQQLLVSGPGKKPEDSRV
As to the kind of experiment: 3H-valsartan uptake inhibition in HEK-293-OATP2B1 cells. The settings on record: read-out: IC50 OATP2B1, valsartan uptake, substrate 3H-valsartan, three independent experiments.

Another data set has as its target T3, BCRP (Homo sapiens, UniProt Q9UNQ0).
T3 sequence (Q9UNQ0 1-655): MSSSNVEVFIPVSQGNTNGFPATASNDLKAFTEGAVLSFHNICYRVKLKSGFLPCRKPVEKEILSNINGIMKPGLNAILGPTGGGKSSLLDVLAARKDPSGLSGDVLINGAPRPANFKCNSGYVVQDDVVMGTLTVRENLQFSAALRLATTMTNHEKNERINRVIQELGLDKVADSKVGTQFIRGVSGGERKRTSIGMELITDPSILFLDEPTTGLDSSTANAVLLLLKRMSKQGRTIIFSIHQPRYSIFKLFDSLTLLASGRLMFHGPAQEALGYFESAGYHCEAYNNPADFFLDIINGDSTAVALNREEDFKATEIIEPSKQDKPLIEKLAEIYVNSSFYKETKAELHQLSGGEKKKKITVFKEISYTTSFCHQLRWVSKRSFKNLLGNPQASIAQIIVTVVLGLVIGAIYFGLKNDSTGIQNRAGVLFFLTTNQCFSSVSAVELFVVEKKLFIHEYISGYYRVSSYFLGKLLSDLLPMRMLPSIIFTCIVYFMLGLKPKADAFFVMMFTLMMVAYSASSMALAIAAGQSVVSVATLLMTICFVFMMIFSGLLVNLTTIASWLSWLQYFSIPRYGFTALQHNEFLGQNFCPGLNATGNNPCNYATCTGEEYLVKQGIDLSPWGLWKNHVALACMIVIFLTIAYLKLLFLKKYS
As to the kind of experiment: Vesicular transport assay, 3H-CCK8 uptake in BCRP membrane vesicles. Type of data set: biochemical. Details: purchased ThermoFisher Scientific GM0008; host or cells: Sf9 membrane vesicles. Here is the method:
as §1

The mark [2] stands for this setting: antioxidant 200 µM, uptake with DMSO set as 100%, mean ± SD, three replicates, membrane vesicles.

Molecules are shown by their SMILES. Several values for one entry are separate records, joined by “and”; a condition that tells them apart may be missing. Identical values can stand only once.

T1 sequence (P08183 whole entry): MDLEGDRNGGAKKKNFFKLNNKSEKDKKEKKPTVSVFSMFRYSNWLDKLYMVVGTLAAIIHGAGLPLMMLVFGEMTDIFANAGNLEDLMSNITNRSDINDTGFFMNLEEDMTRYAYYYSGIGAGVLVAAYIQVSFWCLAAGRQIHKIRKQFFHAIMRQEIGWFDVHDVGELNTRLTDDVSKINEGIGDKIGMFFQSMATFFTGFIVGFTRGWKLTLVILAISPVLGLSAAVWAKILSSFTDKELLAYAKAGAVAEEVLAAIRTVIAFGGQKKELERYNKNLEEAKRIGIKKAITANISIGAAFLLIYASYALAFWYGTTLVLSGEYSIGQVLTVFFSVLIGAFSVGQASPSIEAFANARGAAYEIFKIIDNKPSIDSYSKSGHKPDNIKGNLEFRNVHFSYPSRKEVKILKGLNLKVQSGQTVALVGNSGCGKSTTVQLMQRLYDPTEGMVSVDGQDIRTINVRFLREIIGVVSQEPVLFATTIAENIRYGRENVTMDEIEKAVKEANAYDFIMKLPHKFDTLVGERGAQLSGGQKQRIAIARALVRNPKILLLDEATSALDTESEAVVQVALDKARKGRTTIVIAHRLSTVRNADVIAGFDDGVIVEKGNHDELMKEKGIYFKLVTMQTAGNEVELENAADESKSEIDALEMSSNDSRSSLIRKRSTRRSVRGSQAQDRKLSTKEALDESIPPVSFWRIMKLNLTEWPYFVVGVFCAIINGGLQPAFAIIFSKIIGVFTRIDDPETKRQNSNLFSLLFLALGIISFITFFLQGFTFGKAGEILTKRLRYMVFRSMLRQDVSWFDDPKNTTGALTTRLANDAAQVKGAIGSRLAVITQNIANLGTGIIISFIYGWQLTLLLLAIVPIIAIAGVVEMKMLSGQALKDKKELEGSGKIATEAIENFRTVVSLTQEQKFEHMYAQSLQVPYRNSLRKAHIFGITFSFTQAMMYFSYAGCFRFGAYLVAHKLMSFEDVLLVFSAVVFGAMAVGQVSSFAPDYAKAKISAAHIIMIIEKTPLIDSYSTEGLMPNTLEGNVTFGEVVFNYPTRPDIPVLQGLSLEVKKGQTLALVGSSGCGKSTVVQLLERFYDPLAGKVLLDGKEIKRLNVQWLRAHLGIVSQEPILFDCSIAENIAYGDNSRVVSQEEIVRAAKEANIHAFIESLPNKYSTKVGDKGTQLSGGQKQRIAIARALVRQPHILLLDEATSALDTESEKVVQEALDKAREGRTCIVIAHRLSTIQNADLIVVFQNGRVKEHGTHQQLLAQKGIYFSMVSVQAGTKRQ
Method for OATP2B1: The uptake transporter assay was performed as reported previously with minor modifications [15]. A day before the uptake assay, Isoplate 96-well plates were coated with poly-D-lysine in PBS with calcium and magnesium and washed with PBS. […] An assay mixture of ^3H-estrone sulfate, a known inhibitor of OATP2B1, or an antioxidant was prepared and incubated in a 37 °C incubator for 10 min. The cells were washed with ice-cold HBSS three times and incubated with MicroScint fluid on a shaker for 1 h for cell lysis. Radioactivity was measured by liquid scintillation counting with a MicroBeta^2® microplate counter. […] On the day of experiment, cells were washed twice with 0.4 mL of HBSS per well and then pre-incubated for 10–20 min in 0.4 mL of HBSS. […] Uptake of ^3H-valsartan was stopped after 15 min by washing three times with ice-cold HBSS. Cells were lysed in 750 µL of lysis buffer (0.1 N NaOH and 0.1% SDS in double-distilled water) per well while shaking for 60 min. A total of 690 µL of the lysate from each well was then added to 2.5 mL of EcoLite scintillation fluid. The radioactivity was determined on a LS6500 Scintillation Counter (Beckman Coulter). Protein concentration was measured with a Pierce™ BCA protein assay kit. The radioactivity in each well was corrected for protein concentration. All values were determined in triplicate, and the final values are expressed as % uptake relative to negative control (1% DMSO).
Antioxidants were screened at a concentration of 200 μM.

`COc1ccc(O)cc1C(C)(C)C` [Butylated hydroxyanisole (BHA), 2-tert-Butyl-4-hydroxyanisole]: the “Inhibition of P-gp” value on P-gp (200 µM, 3H-NMQ) is on record as “at least 50%”. Further, on P-gp (setting [2]), the “% Uptake of 3H-NMQ P-gp” value is reported as 42.1 ± 5.7%. The IC50 was 182 ± 49 µM against P-gp (substrate 3H-NMQ, mean ± SD of three independent experiments); 19 µM and 19.1 µM at OATP2B1; 206 ± 14 µM at BCRP (substrate 3H-CCK8, mean ± SD of three independent experiments). Moreover, the LogP in data set [1] is given as 3.2. In addition, the “Inhibition of BCRP” value at BCRP (200 µM, 3H-CCK8) was “at least 50%”. The “% Uptake of 3H-CCK8 BCRP” value on BCRP (setting [2]) is 46.7 ± 5.5%.
